Consider 24 molecules from patent US9611263B2, “Compounds that modulate intracellular calcium” (CALCIMEDICA, INC., priority 2013, dated 2017).

One test has as its system RBL-2H3 cells. Kind of test: Fluorescence-based assay of store-operated calcium entry in RBL-2H3 cells. It counts as cell-based, rat. Particulars: for IC50: thapsigargin, 50% inhibition of Upslope, read-out: RBL-2H3 (IC50, μmol); for RBL-2H3 efficacy: given in place of a class. Here is the method:
B. Fluorescence-Based Assay of Store-Operated Calcium Entry in RBL-2H3 Cells.
RBL-2H3 cells are obtained from ATCC and maintained in complete medium with 10% FBS at 37° C./6% CO2.
The day prior to performing the assay, RBL-2H3 cells are plated in 50 μL of complete medium in a 384 well plate. Cells are grown at 37° C./6% CO2 overnight and grow to 50-60% confluence by the next day. On the assay day, 1.5 μM Fluo-4-AM dye (Invitrogen) in complete medium is added and incubated for 1 hour at RT. Cells are washed twice in Ca^2+-free HBSS buffer and 35 μL Ca^2+-free HBSS buffer is added to each well. 10 μL of a test compound prepared in a Ca^2+-free HBSS solution at 4.5× of the desired concentration is added to a well and incubated for 5 minutes at RT. 10 μL of thapsigargin prepared in a Ca^2+-free HBSS solution at 5.5× of the desired concentration (5.5 uM) is added to each well and incubated for an additional 25 minutes. The initial baseline fluorescence signal is measured with a FLIPR^384 (Molecular Devices) plate reader. 5 μL of 12× calcium in HBSS (12 mM) is added and changes in cellular fluorescence are measured with the FLIPR^384 plate reader. In each well, the change in the fluorescent signal as a function of time due to calcium entry into the cell is determined by calculating the difference between the fluorescent signal measured 7 seconds after calcium addition and the initial baseline fluorescence signal at time zero (t=0). This parameter is designated Upslope. The IC50 value is calculated as the concentration at which 50% of the Upslope is inhibited.

For a further test, the target named is T1, Orai1/STIM1 (Homo sapiens, UniProt Q96D31).
T1 construct: expressed in transfected cells
Briefly: Fluorescence-based assay of store-operated calcium entry in Orai1/STIM1 stable cells. Also noted: key to Orai1/STIM1 (IC50, μmol): A < 0.6 μmol; 0.6 μmol ≦ B ≦ 1.2 μmol; C > 1.2 μmol; — = no fit. Particulars: for IC50: read-out: Orai1/STIM1 (IC50, μmol). The test is classed as cell-based. How it is done: A. Fluorescence-Based Assay of Store-Operated Calcium Entry in Orai1/STIM1 Stable Cells.
Cells stably expressing recombinant human STIM1 and Orai1 are generated by transfecting a human Orai1 expression plasmid (pcDNA3.1-Orai1-cmyc) into HEK-293 cells stably overexpressing human STIM1 (Roos et al. 2005 JCB 169(3): 435-445). Colonies of cells stably expressing both STIM1 and Orai1 proteins are selected and then subcloned by limiting dilution. Cells were cultured at 37° C./6% CO2 in complete medium with 10% FBS and appropriate selection markers.
The day prior to performing the assay Orai1/STIM1 stable cells are plated in 50 μL of complete medium at 90-95% confluence in a 384 well plate. Cells are grown at 37° C./6% CO2 overnight. On the day of the assay, 1.5 μM fluo-4-AM (Invitrogen) in complete medium is added to the cells, which are then incubated for 1 hour at RT. Cells are washed once in Ca^2+-free HBSS (Hank's buffered saline solution) and 35 μl of Ca^2+-free HBSS is added to each well. Test compounds are added to wells in a 10 μL Ca^2+-free HBSS solution, prepared at 4.5× the desired final concentration, and incubated for 30 minutes at RT. The initial baseline fluorescence signal is then measured with a FLIPR^384 (Molecular Devices) plate reader. Calcium entry is initiated by adding 5 μl of 10× CaCl2 (10 mM) in HBSS, and changes in cellular fluorescence are measured with the FLIPR^384 plate reader. In each well, the magnitude of the fluorescence signal as a result of calcium entry into the cell is determined by calculating the difference between the peak fluorescence signal measured after calcium addition and the initial baseline fluorescence signal (designated Peak-Basal). IC50 values are typically calculated as the concentration that inhibited 50% of the Peak-Basal signal.

The mark [1] stands for this setting: HEK-293 cells stably expressing human STIM1 and Orai1, 50% inhibition of Peak-Basal fluorescence signal.

Like-named read-outs stand apart in the source and are kept apart here.

T1 sequence (Q96D31 whole entry): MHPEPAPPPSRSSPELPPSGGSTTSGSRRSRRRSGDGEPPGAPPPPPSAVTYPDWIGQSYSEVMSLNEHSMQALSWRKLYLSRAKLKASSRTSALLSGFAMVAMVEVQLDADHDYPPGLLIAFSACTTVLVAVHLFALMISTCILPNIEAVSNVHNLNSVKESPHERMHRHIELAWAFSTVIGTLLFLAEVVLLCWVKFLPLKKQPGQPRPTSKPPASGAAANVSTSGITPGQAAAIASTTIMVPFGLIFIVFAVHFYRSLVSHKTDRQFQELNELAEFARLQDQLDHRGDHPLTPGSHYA

In the case of `O=C(Nc1ccc(-c2cn(-c3nccs3)nc2C(F)(F)F)cn1)c1c(F)ccc(F)c1F` [Example 53, 2,3,6-trifluoro-N-(5-(1-(thiazol-2-yl)-3-(trifluoromethyl)-1H-pyrazol-4-yl)pyridin-2-yl)benzamide], the IC50 with RBL-2H3 cells (Rattus norvegicus, RBL-2H3) was < 0.6 µM; on Orai1/STIM1 (setting [1]), 0.6 to 1.2 µM.
As to `CC(C)(C)c1nn(-c2nccs2)cc1-c1ccc(NC(=O)c2c(F)cccc2F)nc1` [Example 54, N-(5-(3-tert-butyl-1-(thiazol-2-yl)-1H-pyrazol-4-yl)pyridin-2-yl)-2,6-difluorobenzamide], the IC50 with RBL-2H3 cells (Rattus norvegicus, RBL-2H3) is < 0.6 µM. In addition, the “Orai1/STIM1 (IC50, μmol)” value on Orai1/STIM1 (setting [1]) is given as “—”.
On to `Cc1nn(-c2cc(F)ccc2F)cc1-c1ccc(NC(=O)c2c(F)cccc2F)nc1` [Example 55, N-(5-(1-(2,5-difluorophenyl)-3-methyl-1H-pyrazol-4-yl)pyridin-2-yl)-2,6-difluorobenzamide], for which the IC50 in the test on RBL-2H3 cells (Rattus norvegicus, RBL-2H3) is < 0.6 µM; at Orai1/STIM1 (setting [1]), < 0.6 µM.
With `Cc1nn(-c2cc(F)ccc2F)cc1-c1ccc(NC(=O)c2c(F)ccc(F)c2F)nc1` [Example 56, N-(5-(1-(2,5-difluorophenyl)-3-methyl-1H-pyrazol-4-yl)pyridin-2-yl)-2,3,6-trifluorobenzamide], the IC50 was > 1.2 µM in the test with RBL-2H3 cells (Rattus norvegicus, RBL-2H3) and < 0.6 µM on Orai1/STIM1 (setting [1]).
Take `Cc1nn(-c2ccccc2F)cc1-c1ccc(NC(=O)c2c(F)cccc2F)nc1` [Example 57, 2,6-difluoro-N-(5-(1-(2-fluorophenyl)-3-methyl-1H-pyrazol-4-yl)pyridin-2-yl)benzamide]: the IC50 is < 0.6 µM with RBL-2H3 cells (Rattus norvegicus, RBL-2H3) and < 0.6 µM at Orai1/STIM1 (setting [1]).
As to `Cc1nn(-c2ccccc2F)cc1-c1ccc(NC(=O)c2ccccc2F)nc1` [Example 58, 2-fluoro-N-(5-(1-(2-fluorophenyl)-3-methyl-1H-pyrazol-4-yl)pyridin-2-yl)benzamide], the IC50 in the test with RBL-2H3 cells (Rattus norvegicus, RBL-2H3) was > 1.2 µM; at Orai1/STIM1 (setting [1]), 0.6 to 1.2 µM.
For `Cc1cccc(F)c1C(=O)Nc1ccc(-c2cn(-c3ccccc3F)nc2C)cn1` [Example 59, 2-fluoro-N-(5-(1-(2-fluorophenyl)-3-methyl-1H-pyrazol-4-yl)pyridin-2-yl)-6-methylbenzamide], in that order: < 0.6 µM and < 0.6 µM.
Regarding `Cc1ccc(F)c(C(=O)Nc2ccc(-c3cn(-c4ccccc4F)nc3C)cn2)c1F` [Example 60, 2,6-difluoro-N-(5-(1-(2-fluorophenyl)-3-methyl-1H-pyrazol-4-yl)pyridin-2-yl)-3-methylbenzamide], the IC50 in the test on RBL-2H3 cells (Rattus norvegicus, RBL-2H3) was < 0.6 µM; at Orai1/STIM1 (setting [1]), < 0.6 µM.
Consider `Cc1nn(-c2ccccc2F)cc1-c1ccc(NC(=O)c2ccccc2OC(F)F)nc1` [Example 61, 2-(difluoromethoxy)-N-(5-(1-(2-fluorophenyl)-3-methyl-1H-pyrazol-4-yl)pyridin-2-yl)benzamide], for which the IC50 is > 1.2 µM in the test with RBL-2H3 cells (Rattus norvegicus, RBL-2H3) and > 1.2 µM at Orai1/STIM1 (setting [1]).
As to `N#Cc1nn(-c2cc(F)ccc2F)cc1-c1ccc(NC(=O)c2c(F)cccc2F)nc1` [Example 62, N-(5-(3-cyano-1-(2,5-difluorophenyl)-1H-pyrazol-4-yl)pyridin-2-yl)-2,6-difluorobenzamide], the IC50 in the test on RBL-2H3 cells (Rattus norvegicus, RBL-2H3) is < 0.6 µM; at Orai1/STIM1 (setting [1]), 0.6 to 1.2 µM.
Consider `Cc1cnc(-n2cc(-c3ccc(NC(=O)c4c(F)cccc4F)nc3)c(C)n2)s1` [Example 63, 2,6-difluoro-N-(5-(3-methyl-1-(5-methylthiazol-2-yl)-1H-pyrazol-4-yl)pyridin-2-yl)benzamide], for which the RBL-2H3 efficacy with RBL-2H3 cells was <50%. In addition, on Orai1/STIM1 (given in place of a class), the Orai1/STIM1 efficacy is recorded as <50%.
As to `Cc1cnc(-n2cc(-c3ccc(NC(=O)c4c(F)ccc(F)c4F)nc3)c(C)n2)s1` [Example 64, 2,3,6-trifluoro-N-(5-(3-methyl-1-(5-methylthiazol-2-yl)-1H-pyrazol-4-yl)pyridin-2-yl)benzamide], the IC50 with RBL-2H3 cells (Rattus norvegicus, RBL-2H3) is < 0.6 µM; on Orai1/STIM1 (setting [1]), < 0.6 µM.
Take `Cc1cnc(-n2cc(-c3ccc(NC(=O)c4c(F)cc(F)cc4F)nc3)c(C)n2)s1` [Example 65, 2,4,6-trifluoro-N-(5-(3-methyl-1-(5-methylthiazol-2-yl)-1H-pyrazol-4-yl)pyridin-2-yl)benzamide]: the RBL-2H3 efficacy with RBL-2H3 cells was <50%. For the same molecule, at Orai1/STIM1 (setting [1]), the IC50 was < 0.6 µM.
For the molecule `Cc1cn(-c2nccs2)nc1-c1ccc(NC(=O)c2c(F)cccc2F)cc1F` [Example 66, 2,6-difluoro-N-(3-fluoro-4-(4-methyl-1-(thiazol-2-yl)-1H-pyrazol-3-yl)phenyl)benzamide], the IC50 with RBL-2H3 cells (Rattus norvegicus, RBL-2H3) is < 0.6 µM; on Orai1/STIM1 (setting [1]), > 1.2 µM.
The matching figures for `Cc1nn(-c2nccs2)cc1-c1cnc(NC(=O)c2c(F)ccc(F)c2F)s1` [Example 67, 2,3,6-trifluoro-N-(5-(3-methyl-1-(thiazol-2-yl)-1H-pyrazol-4-yl)thiazol-2-yl)benzamide]: < 0.6 µM and 0.6 to 1.2 µM.
Regarding `CCc1nn(-c2nccs2)cc1-c1nnc(NC(=O)c2c(F)ccc(F)c2F)s1` [Example 68, N-(5-(3-ethyl-1-(thiazol-2-yl)-1H-pyrazol-4-yl)-1,3,4-thiadiazol-2-yl)-2,3,6-trifluorobenzamide], the IC50 with RBL-2H3 cells (Rattus norvegicus, RBL-2H3) was < 0.6 µM; on Orai1/STIM1 (setting [1]), 0.6 to 1.2 µM.
Regarding `Cc1nn(-c2nccs2)cc1-c1ccc(NC(=O)c2c(F)cccc2F)s1` [Example 69, 2,6-difluoro-N-(5-(3-methyl-1-(thiazol-2-yl)-1H-pyrazol-4-yl)thiophen-2-yl)benzamide], the IC50 with RBL-2H3 cells (Rattus norvegicus, RBL-2H3) is < 0.6 µM; at Orai1/STIM1 (setting [1]), < 0.6 µM.
As for `Cc1nn(-c2nccs2)cc1-c1ccc(NC(=O)c2ccccc2F)s1` [Example 70, 2-fluoro-N-(5-(3-methyl-1-(thiazol-2-yl)-1H-pyrazol-4-yl)thiophen-2-yl)benzamide], the IC50 with RBL-2H3 cells (Rattus norvegicus, RBL-2H3) was < 0.6 µM; on Orai1/STIM1 (setting [1]), < 0.6 µM.
As to `Cc1cccc(F)c1C(=O)Nc1ccc(-c2cn(-c3nccs3)nc2C)s1` [Example 71, 2-fluoro-6-methyl-N-(5-(3-methyl-1-(thiazol-2-yl)-1H-pyrazol-4-yl)thiophen-2-yl)benzamide], the IC50 is < 0.6 µM in the test with RBL-2H3 cells (Rattus norvegicus, RBL-2H3) and 0.6 to 1.2 µM on Orai1/STIM1 (setting [1]).
For the molecule `Cc1nn(-c2nccs2)cc1-c1ccc(NC(=O)c2ccccc2OC(F)F)s1` [Example 72, 2-(difluoromethoxy)-N-(5-(3-methyl-1-(thiazol-2-yl)-1H-pyrazol-4-yl)thiophen-2-yl)benzamide], the IC50 is > 1.2 µM with RBL-2H3 cells (Rattus norvegicus, RBL-2H3) and 0.6 to 1.2 µM at Orai1/STIM1 (setting [1]).
In the case of `CCc1nn(-c2nccs2)cc1-c1ccc(NC(=O)c2c(F)cccc2F)s1` [Example 73, N-(5-(3-ethyl-1-(thiazol-2-yl)-1H-pyrazol-4-yl)thiophen-2-yl)-2,6-difluorobenzamide], the IC50 in the test with RBL-2H3 cells (Rattus norvegicus, RBL-2H3) is < 0.6 µM; on Orai1/STIM1 (setting [1]), 0.6 to 1.2 µM.
Regarding `CCc1nn(-c2nccs2)cc1-c1ccc(NC(=O)c2ccccc2F)s1` [Example 74, N-(5-(3-ethyl-1-(thiazol-2-yl)-1H-pyrazol-4-yl)thiophen-2-yl)-2-fluorobenzamide], the IC50 was < 0.6 µM in the test with RBL-2H3 cells (Rattus norvegicus, RBL-2H3) and < 0.6 µM on Orai1/STIM1 (setting [1]).
Regarding `Cc1nn(-c2nccs2)cc1-c1ccc(NCc2c(F)cccc2F)cc1F` [Example 75, N-(2,6-difluorobenzyl)-3-fluoro-4-(3-methyl-1-(thiazol-2-yl)-1H-pyrazol-4-yl)aniline], the IC50 in the test on RBL-2H3 cells (Rattus norvegicus, RBL-2H3) was < 0.6 µM; at Orai1/STIM1 (setting [1]) it was < 0.6 µM.
Take “N-(4-(3-ethyl-1-(thiazol-2-yl)-1H-pyrazol-4-yl)phenyl)-2,3,6-trifluorobenzamide [Example 9]”: the IC50 in the test on RBL-2H3 cells is < 0.6 µM; at Orai1/STIM1 (setting [1]), 0.6 to 1.2 µM.
